Data: patent US8604042B2, “Bi-aryl meta-pyrimidine inhibitors of kinases” (TargeGen, Inc., priority 2005, dated 2013)
Where a name gives a salt, the structure may show the parent alone.

target: T1, recombinant JAK2 (Homo sapiens, UniProt O60674); assay: IC50 value determinations for Jak2 kinase, luminescence-based kinase assay (Kinase-Glo); type: biochemical; details: Table 1
T1 construct: purchased Upstate Cell Signaling Solutions
T1 sequence (O60674 808-1132 limits assumed): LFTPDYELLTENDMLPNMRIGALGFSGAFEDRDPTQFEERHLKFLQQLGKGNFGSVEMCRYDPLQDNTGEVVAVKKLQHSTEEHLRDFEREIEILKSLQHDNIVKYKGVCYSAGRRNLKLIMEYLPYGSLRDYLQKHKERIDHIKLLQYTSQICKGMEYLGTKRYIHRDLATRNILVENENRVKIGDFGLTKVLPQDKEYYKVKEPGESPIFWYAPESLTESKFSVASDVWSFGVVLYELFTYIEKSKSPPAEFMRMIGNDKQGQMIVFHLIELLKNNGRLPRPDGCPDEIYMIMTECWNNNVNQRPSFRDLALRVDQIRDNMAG
Protocol: The IC50 values for compounds were determined using a luminescence-based kinase assay with recombinant JAK2 obtained from Upstate Cell Signaling Solutions. In white, flat bottom, 96-well plates (Nunc) parallel assays were run at room temperature at a final volume of 50 μL.
Two control reactions were also ran: one reaction containing no compound and the second containing neither inhibitor nor peptide substrate. IC50 values were derived from experimental data using the non-linear curve fitting capabilities of Prism (Version 4; GraphPad Software).

Row | Structure (SMILES) | IC50
1 | COc1ccc(Nc2ccnc(Nc3ccc(OCCN4CCCC4)cc3)n2)cc1 [N4-(4-Methoxy-phenyl)-N2-[4-(2-pyrrolidin-1-yl-ethoxy)-phenyl]-pyrimidine-2,4-diamine trifluoroacetate] | 4330 nM
2 | Cc1cnc(Nc2ccc(Cn3ccnc3C)cc2)nc1Nc1cccc(S(=O)(=O)NC(C)(C)C)c1 [N-tert-Butyl-3-{5-methyl-2-[4-(2-methyl-imidazol-1-ylmethyl)-phenylamino]-pyrimidin-4-ylamino}-benzenesulfonamide] | 21.9 nM
3 | Cc1cnc(Nc2ccc(N3CCN(C)CC3)cc2)nc1Nc1cccc(S(=O)(=O)N2CCCCC2C)c1 (stereo not drawn) [5-Methyl-N2-[4-(4-methyl-piperazin-1-yl)-phenyl]-N4-[3-(2-methyl-piperidine-1-sulfony)-phenyl]-pyrimidine-2,4-diamine Hydrochloride] | 33.5 nM
4 | Cc1cnc(Nc2ccc(N3CCN(C)CC3)cc2)nc1Nc1cccc(C(N)=O)c1 [3-{5-Methyl-2-[4-(4-methyl-piperazin-1-yl)-phenylamino]-pyrimidin-4-ylamino}-benzamide] | 23 nM
5 | CNS(=O)(=O)c1cc(Nc2nc(Nc3ccc(OCCN4CCCC4)cc3)ncc2C)ccc1C [2,N-Dimethyl-5-{5-methyl-2-[4-(2-pyrrolidin-1-yl-ethoxy)-phenylamino]-pyrimidin-4-ylamino}-benzenesulfonamide] | 127 nM
6 | COc1cc(Nc2nc(Nc3ccc(OCCO)cc3)ncc2C)ccc1Cl [2-{4-[4-(4-Chloro-3-methoxy-phenylamino)-5-methyl-pyrimidin-2-ylamino]-phenoxy}-ethanol] | 9.14 nM
7 | Cc1cnc(Nc2ccc(CN3CCOCC3)cc2)nc1Nc1cccc2[nH]ccc12 [N4-(1H-Indol-4-yl)-5-methyl-N2-(4-morpholin-4-ylmethyl-phenyl)-pyrimidine-2,4-diamine] | 7.42 nM
8 | Cc1cnc(Nc2ccc(Cc3ccncc3)cc2)nc1Nc1cccc(S(=O)(=O)NC(C)(C)C)c1 [N-tert-Butyl-3-[5-methyl-2-(4-pyridin-4-ylmethyl-phenylamino)-pyrimidin-4-ylamino]-benzenesulfonamide] | 80.7 nM
9 | Cc1cnc(Nc2ccc(OC3CCNCC3)cc2)nc1Nc1cccc(C(C)(C)C)c1 [N4-(3-tert-butylphenyl)-5-methyl-N2-(4-(piperidin-4-yloxy)phenyl)pyrimidine-2,4-diamine Hydrochloride] | 2.73 nM
10 | Cc1cnc(Nc2ccc(N3CCN(C)CC3)cc2)nc1Nc1cccc(S(=O)(=O)N2CCCC2)c1 [5-Methyl-N2-[4-(4-methyl-piperazin-1-yl)-phenyl]-N4-[3-(pyrrolidine-1-sulfony)-phenyl]-pyrimidine-2,4-diamine Hydrochloride] | 17.1 nM
11 | COc1cc(Nc2nc(Nc3ccc(CN4CCN(C)CC4)cc3)ncc2C)ccc1Cl [N4-(4-Chloro-3-methoxy-phenyl)-5-methyl-N2-[4-(4-methyl-piperazin-1-ylmethyl)-phenyl]-pyrimidine-2,4-diamine] | 12 nM
12 | Cc1cnc(Nc2ccc(OCCO)cc2)nc1Nc1cccc(S(=O)(=O)NC(C)(C)C)c1 [N-tert-Butyl-3-{2-[4-(2-hydroxy-ethoxy)-phenylamino]-5-methyl-pyrimidin-4-ylamino)-benzenesulfonamide] | 20.3 nM
13 | Cc1cnc(Nc2ccc(OCCN3CCCC3)cc2)nc1Nc1cccc2c1OCO2 [drawing 333, N4-Benzo[1,3]dioxol-4-yl-5-methyl-N2-[4-(2-pyrrolidin-1-ylethoxy)-phenyl]-pyrimidine-2,4-diamine] | 16.9 nM
14 | Cc1cnc(Nc2ccc(OCCN3CCCC3)cc2)nc1Nc1ccc(C)c2[nH]ccc12 [N2-(4-(2-(pyrrolidin-1-yl)ethoxy)phenyl)-5-methyl-N4-(7-methyl-1H-indol-4-yl)pyrimidine-2,4-diamine Hydrochloride] | 6.98 nM
15 | Cc1cnc(Nc2ccc(OC3CCNCC3)cc2)nc1Nc1cccc(C(F)(F)F)c1C [5-Methyl-N4-(2-methyl-3-trifluoromethyl-phenyl)-N2-[4-(piperidin-4-yloxy)-phenyl]-pyrimidine-2,4-diamine] | 52.9 nM
16 | O=S(=O)(NCCN1CCCC1)c1ccc(Nc2nccc(Nc3cccc(O)c3)n2)cc1 [4-[4-(3-Hydroxy-phenylamino)-pyrimidin-2-ylamino]-N-(2-pyrrolidin-1-yl-ethyl)-benzenesulfonamide trifluoroacetate] | 3620 nM
17 | COc1cc(Nc2nc(Nc3ccc(N4CCCCC4)cc3)ncc2C)ccc1Cl [N4-(4-Chloro-3-methoxy-phenyl)-5-methyl-N2-(4-piperidin-1-yl-phenyl)-pyrimidine-2,4-diamine] | 35.3 nM
18 | Cc1cnc(Nc2ccc(C(=O)N3CCNCC3)cc2)nc1Nc1cccc(S(=O)(=O)NC(C)(C)C)c1 [N-tert-Butyl-3-{5-methyl-2-[4-(piperazine-1-carbonyl)-phenylamino]-pyrimidin-4-ylamino}-benzenesulfonamide] | 69 nM
19 | CCOC(=O)c1cccc(Nc2nc(Nc3ccc(N4CCN(C)CC4)cc3)ncc2C)c1C [2-Methyl-3-{5-methyl-2-[4-(4-methyl-piperazin-1-yl)-phenylamino]-pyrimidin-4-ylamino)-benzoic acid ethyl ester] | 27.8 nM

Row | Structure (SMILES) | IC50
20 | Cc1cnc(Nc2ccc(N3CCN(C)CC3)cc2)nc1Nc1cccc(C(=O)NC(C)(C)C)c1 [N-tert-Butyl-3-{5-methyl-2-[4-(4-methyl-piperazin-1-yl)-phenylamino]-pyrimidin-4-ylamino}-benzamide] | 890 nM
21 | Cc1cnc(Nc2ccc(OCCN3CCCC3)cc2)nc1Nc1nccc2ccccc12 [N2-(4-(2-(pyrrolidin-1-yl)ethoxy)phenyl)-N4-(isoquinolin-1-yl)-5-methylpyrimidine-2,4-diamine] | 1050 nM
22 | Cc1cnc(Nc2ccc(OCCN3CCCC3)cc2)nc1Nc1ccc(C#N)c(Cl)c1 [4-(2-(4-(2-(pyrrolidin-1-yl)ethoxy)phenylamino)-5-methylpyrimidin-4-ylamino)-2-chlorobenzonitrile Hydrochloride] | 67.5 nM
23 | Cc1ccc(Nc2nc(Nc3ccc(N4CCN(C)CC4)cc3)ncc2C)cc1C [drawing 459, 5-methyl-N4-(3,4-dimeihylphenyl)-N2-(4-(4-methylpiperazin-1-yl)phenyl)pyrimidine-2,4-diamine Hydrochloride] | 16.6 nM
24 | COc1cc(Nc2nc(Nc3ccc(-n4cccn4)cc3)ncc2C)ccc1Cl [N4-(4-Chloro-3-methoxy-phenyl)-5-methyl-N2-(4-pyrazol-1-yl-phenyl)-pyrimidine-2,4-diamine trifluoroacetate] | 35.3 nM
25 | Cc1cnc(Nc2ccc(N3CCN(C)CC3)cc2)nc1Nc1cccc(S(=O)(=O)C2CCNCC2)c1 [5-Methyl-N2-[4-(4-methyl-piperazin-1-yl)-phenyl]-N4-[3-(piperidine-4-sulfonyl)-phenyl]-pyrimidine-2,4-diamine] | 198 nM
26 | Cc1cnc(Nc2ccc(N3CCN(C)CC3)cc2)nc1Nc1cccc(NC(=O)Nc2cccc(C(F)(F)F)c2)c1 [1-(3-{5-Methyl-2-[4-(4-methyl-piperazin-1-yl)-phenylamino]-pyrimidin-4-ylamino}-phenyl)-3-(3-trifluoromethyl-phenyl)-urea] | 126 nM
27 | COc1cc(Nc2nc(Nc3ccc(OCCN4CCCC4)cc3)ncc2C#N)c(Cl)cc1Cl [drawing 298, 4-(2,4-Dichloro-5-methoxy-phenylamino)-2-[4-(2-pyrrolidin-1-yl-ethoxy)-phenylamino]-pyrimidine-5-carbonitrile] | 6240 nM
28 | Cc1cnc(Nc2ccc(CN3CCNCC3)cc2)nc1Nc1ccc(Cl)c2[nH]ccc12 [N4-(7-chloro-1H-indol-4-yl)-5-methyl-N2-(4-((piperazin-1-yl)methyl)phenyl)pyrimidine-2,4-diamine Hydrochloride] | 694 nM
29 | Cc1cnc(Nc2ccc(C(C)N3CCOCC3)cc2)nc1Nc1cccc(S(=O)(=O)NC(C)(C)C)c1 (stereo not drawn) [N-tert-Butyl-3-{5-methyl-2-[4-(1-morpholin-4-yl-ethyl)-phenylamino]-pyrimidin-4-ylamino}-benzenesulfonamide] | 29.7 nM
30 | Cc1cnc(Nc2ccc(OCCN3CCCC3)cc2)nc1Nc1ccccc1 [5-Methyl-N4-phenyl-N2-[4-(2-pyrrolidin-1-yl-ethoxy)-phenyl]-pyrimidine-2,4-diamine] | 16.7 nM
31 | Cc1cnc(Nc2ccc(Cn3ccnc3)cc2)nc1Nc1cccc(S(=O)(=O)NC(C)(C)C)c1 [N-tert-Butyl-3-[2-(4-imidazol-1-ylmethyl-phenylamino)-5-methyl-pyrimidin-4-ylamino]-benzenesulfonamide] | 8.42 nM
32 | Cc1ccc(Nc2nc(Nc3ccc(-n4ccnc4)cc3)ncc2C)cc1S(=O)(=O)NC(C)(C)C [N-tert-Butyl-5-[2-(4-imidazol-1-yl-phenylamino)-5-methyl-pyrimidin-4-ylamino]-2-methyl-benzenesulfonamide] | 88.2 nM
33 | Cc1cnc(Nc2ccc(OCCN3CCCC3)cc2)nc1Nc1cccc2ccccc12 [N2-(4-(2-(pyrrolidin-1-yl)ethoxy)phenyl)-5-methyl-N4-(naphthalen-1-yl)pyrimidine-2,4-diamine Hydrochloride] | 20 nM
34 | Cc1cnc(Nc2ccc(N3CCOCC3)cc2)nc1Nc1cccc(S(=O)(=O)NC(C)(C)C)c1 [N-tert-Butyl-3-[5-methyl-2-(4-morpholin-4-yl-phenylamino)-pyrimidin-4-ylamino]-benzenesulfonamide] | 12.1 nM
35 | Cc1cnc(Nc2ccc(N3CCN(C)CC3)cc2)nc1Nc1cccc2c1OCO2 [N4-Benzo[1,3]dioxol-4-yl-5-methyl-N2-[4-(4-methyl-piperazin-1-yl)-phenyl]-pyrimidine-2,4-diamine] | 14.2 nM
36 | Cc1cnc(Nc2ccc(N3CCNCC3)cc2)nc1Nc1cccc(S(=O)(=O)NC(C)(C)C)c1 [N-tert-Butyl-3-[5-methyl-2-(4-piperazin-1-yl-phenylamino)-pyrimidin-4-ylamino]-benzenesulfonamide Hydrochloride] | 7.59 nM
37 | CC(=O)N1CCN(c2ccc(Nc3ncc(C)c(Nc4cccc(S(=O)(=O)NC(C)(C)C)c4)n3)cc2)CC1 [3-{2-[4-(4-Acetyl-piperazin-1-yl)-phenylamino]-5-methyl-pyrimidin-4-ylamino}-N-tert-butyl-benzenesulfonamide] | 18.6 nM

same assay, conditions: Table 5, Initial Screening Hits for JAK2

Row | Structure (SMILES) | IC50
38 | COc1cc(Nc2nc(Nc3cccc(OCCN4CCCC4)c3)ncc2C#N)c(Cl)cc1Cl [Compound 2] | 10500 nM

same assay, conditions: Table 7, SAR for the P3 region

Row | Structure (SMILES) | IC50
39 | COc1cc(Nc2nc(Nc3cccc(OCCN4CCCC4)c3)ncc2C#N)c(Cl)cc1Cl [Compound 2] | 10500 nM
